Laboratory results from patent US10654868B2, “Dihydropyrazole azepine compound serving as Akt inhibitor” (HARBIN ZHENBAO PHARMACEUTICAL CO., LTD., priority 2016, dated 2020).

Tests used:
Akt3 = target: T1, Akt3 (Homo sapiens, UniProt Q9Y243); experiment: Akt3 kinase inhibition, LANCE TR-FRET; type: biochemical; settings: Akt3 2 nM, ATP 160 uM, 90 min at room temperature
T1 construct: purchased life technology lot 1715050B (lot number only, catalogue number not given)
Procedure: (§1) Study 1: The Inhibitory Effect of the Compounds on the Activity of Akt1, Akt2 and Akt3
Akt3 protein (life technology # lot 1715050B)
(§2) In this experiment, a homogeneous time-resolved fluorescence […] energy transfer (LANCE TR-FRET®) method was used. In the assay plate, enzymes, biotinylated polypeptide substrates and compound to be tested were mixed, and ATP was added to initiate the reaction and the mixture was incubated. After that, EDTA was added to terminate the reaction while an Eu-labeled antibody was added to carry out the reaction and the reaction was then detected. The assay plate was analyzed by PE company's Envision, and the analysis mode was TR-FRET. The data were represented by fluorescence signals at 665 nm and 615 nm, respectively.
(§3) Compound formulation: compound to be tested and the reference compound were diluted with 100% DMSO, the initial concentration of the compound was 10 uM, and diluted by 10 times in a 3-fold gradient. Transfer the compound to the cell plate and duplicate each well.
(§4) Kinase assay: the enzyme and substrate were mixed with different concentrations of pre-diluted compounds. […] Leave at room temperature for 15 min and diplicate each concentration. ATP was added, and the final concentrations were 36 uM, 360 uM and 160 uM in Akt1, Akt2, and Akt3 kinase reactions, respectively, and the reaction was carried out for 90 min at room temperature (in which negative and positive controls were set). After the reaction was completed, the antibody was added and the mixture was detected, and the cells were incubated for 60 min at room temperature, and then collected by Evnvision. Data analysis and fitting according to *Lfit5 software.

Akt1 = target: T2, Akt1 (Homo sapiens, UniProt P31749); experiment: Akt1 kinase inhibition, LANCE TR-FRET; type: biochemical
T2 construct: purchased life technology lot11629928C (lot number only, catalogue number not given)
Procedure: as §1
Akt1 protein (life technology # lot11629928C)
as §2, §3, §4

LNCaP cells = experiment: LNCaP cell activity, CellTiter-Glo live cell detection; type: cell-based; settings: Homo sapiens, 72 h, 1000 cells per well, incubated 3 days, starting concentration 10 uM
Procedure: Study 2: inhibitory effects of compounds on LNCaP cell activity
The amount of ATP directly reflects the number and the state of the cells, and the number of live cells can be detected by quantitatively measuring ATP. The live cell assay kit contains luciferase and its substrate. Through the participation of ATP, luciferase can catalyze the substrate, emit a stable optical signal, and the amount of ATP in the cell was determined by detecting the intensity of the signal. Wherein, the optical signal is proportional to the amount of ATP in the cell, and ATP is positively correlated with the number of live cells, so that the cell proliferation can be detected. The assay board is analyzed by PE company's Envision.
LNCaP cell was separately seeded in a 384-well plate, each well contains 1000 cells. The cell plate was placed in a carbon dioxide incubator and incubated overnight.
A duplicated experiment was performed with 10 concentrations of compound in a 3-fold dilution with Bravo.
Compound was transferred to the cell plate with a starting concentration of 10 uM. The cell plate was incubated in a carbon dioxide incubator for 3 days.
The Promega CellTiter-Glo reagent was added to the cell plate and incubated for 10 min at room temperature to stabilize the optical signal. Read the data by a PerkinElmer Envision multi-label analyzer.

Akt2 = target: T3, Akt2 (Homo sapiens, UniProt P31751); experiment: Akt2 kinase inhibition, LANCE TR-FRET; type: biochemical; settings: Akt2 2 nM, ATP 360 uM, 90 min at room temperature
T3 construct: purchased life technology lot 28870GG (lot number only, catalogue number not given)
Procedure: as §1
Akt2 protein (life technology # lot 28870GG)
as §2, §3, §4

T1 sequence (Q9Y243 whole entry): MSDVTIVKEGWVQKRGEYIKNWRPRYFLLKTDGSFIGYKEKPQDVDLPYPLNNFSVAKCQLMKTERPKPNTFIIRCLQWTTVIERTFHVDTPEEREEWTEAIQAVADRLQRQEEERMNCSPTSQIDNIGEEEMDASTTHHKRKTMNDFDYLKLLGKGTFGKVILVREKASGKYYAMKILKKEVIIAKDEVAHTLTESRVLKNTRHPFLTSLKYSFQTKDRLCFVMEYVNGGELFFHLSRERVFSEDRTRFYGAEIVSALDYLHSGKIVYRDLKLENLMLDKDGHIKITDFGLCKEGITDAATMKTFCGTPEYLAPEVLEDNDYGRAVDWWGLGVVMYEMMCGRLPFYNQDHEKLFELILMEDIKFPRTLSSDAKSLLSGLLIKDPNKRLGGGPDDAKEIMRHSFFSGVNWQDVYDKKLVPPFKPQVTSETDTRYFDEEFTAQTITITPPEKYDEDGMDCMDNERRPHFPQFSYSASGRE
T2 sequence (P31749 whole entry): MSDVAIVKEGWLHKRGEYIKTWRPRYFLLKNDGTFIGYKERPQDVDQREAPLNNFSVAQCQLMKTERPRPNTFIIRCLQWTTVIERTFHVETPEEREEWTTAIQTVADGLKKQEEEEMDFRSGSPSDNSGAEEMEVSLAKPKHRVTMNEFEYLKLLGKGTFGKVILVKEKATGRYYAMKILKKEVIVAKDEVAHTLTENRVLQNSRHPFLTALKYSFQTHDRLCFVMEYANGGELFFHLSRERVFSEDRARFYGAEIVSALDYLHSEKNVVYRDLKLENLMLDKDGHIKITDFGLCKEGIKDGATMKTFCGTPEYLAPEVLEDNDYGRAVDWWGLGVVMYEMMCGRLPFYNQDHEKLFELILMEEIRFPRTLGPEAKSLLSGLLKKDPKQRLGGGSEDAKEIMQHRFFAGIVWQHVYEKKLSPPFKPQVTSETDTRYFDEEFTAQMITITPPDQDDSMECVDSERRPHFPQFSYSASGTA
T3 sequence (P31751 whole entry): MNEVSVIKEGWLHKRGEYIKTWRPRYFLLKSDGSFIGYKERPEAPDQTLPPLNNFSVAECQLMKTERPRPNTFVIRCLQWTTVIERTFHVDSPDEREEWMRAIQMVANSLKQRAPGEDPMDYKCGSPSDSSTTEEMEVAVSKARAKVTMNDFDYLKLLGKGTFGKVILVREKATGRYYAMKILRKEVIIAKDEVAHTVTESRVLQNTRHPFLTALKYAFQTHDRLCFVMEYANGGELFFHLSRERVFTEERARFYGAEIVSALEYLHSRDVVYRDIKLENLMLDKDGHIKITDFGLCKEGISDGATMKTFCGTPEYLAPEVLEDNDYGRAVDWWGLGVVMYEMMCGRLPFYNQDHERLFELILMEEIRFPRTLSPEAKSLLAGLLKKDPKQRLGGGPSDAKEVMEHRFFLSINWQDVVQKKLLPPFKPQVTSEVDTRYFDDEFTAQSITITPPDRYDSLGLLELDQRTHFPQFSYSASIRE

| IC50 (Akt3) | IC50 (Akt1) | IC50 (LNCaP cells) | IC50 (Akt2) | SMILES |
| --- | --- | --- | --- | --- |
| 0.485 µM | 0.0124 µM | 0.654 µM | 0.281 µM | COC1CCn2ncc(Cl)c2-c2cc(C(=O)N[C@H](CN)Cc3cccc(F)c3)sc21 (stereo partly shown) [Embodiment 30] |
| 0.122 µM | 0.0015 µM | 0.144 µM | 0.076 µM | Cc1cnn2c1-c1cc(C(=O)N[C@H](CN)Cc3ccc(F)c(F)c3)sc1OCC2 [Embodiment 39] |
| 0.416 µM | 0.0275 µM | 0.663 µM | 0.9 µM | N#Cc1cnn2c1-c1cc(C(=O)N[C@H](CN)Cc3ccc(F)c(F)c3)sc1OCC2 [Embodiment 42] |
| 0.052 µM | 0.00884 µM | 1.34 µM | 0.372 µM | NC[C@H](Cc1cccc(F)c1)NC(=O)c1cc2c(s1)CCCn1ncc(-c3ccccc3)c1-2 [Embodiment 23] |
| 0.195 µM | 0.00978 µM | 0.902 µM | 0.235 µM | NC[C@H](Cc1cccc(F)c1)NC(=O)c1cc2n(n1)CCCn1ncc(Cl)c1-2 [Embodiment 36] |
| 0.814 µM | 0.117 µM | > 10 µM | 2.93 µM | NC[C@H](Cc1cccc(F)c1)NC(=O)c1cc2c(s1)C(O)CCn1ncc(Cl)c1-2 (stereo partly shown) [Embodiment 32] |
| 0.398 µM | 0.0674 µM | 3.56 µM | 1.86 µM | NC[C@H](Cc1cccc(F)c1)NC(=O)c1cc2c(s1)CCCn1ncc(-c3cccnc3)c1-2 [Embodiment 24] |
| 0.17 µM | 0.00087 µM | 0.087 µM | 0.066 µM | Cc1cnn2c1-c1cc(C(=O)N[C@H](CN)Cc3cc(F)cc(F)c3)sc1OCC2 [Embodiment 40] |
| 0.029 µM | 0.00173 µM |  | 0.035 µM | NC[C@H](Cc1ccc(F)c(F)c1)NC(=O)c1cc2c(s1)OCCn1ncc(Br)c1-2 [Embodiment 37] |
| 0.286 µM | 0.0333 µM | 1.42 µM | 0.589 µM | NC[C@H](Cc1cccc(F)c1)NC(=O)c1cc2c(s1)CCCn1ncc(F)c1-2 [Embodiment 28] |

More lines, now with the values behind:

| SMILES | IC50 (Akt3) | IC50 (Akt1) | IC50 (LNCaP cells) | IC50 (Akt2) |
| --- | --- | --- | --- | --- |
| NC[C@H](Cc1ccccn1)NC(=O)c1cc2c(s1)CCCn1ncc(Br)c1-2 [Embodiment 20] | 0.374 µM | 0.011 µM | 0.487 µM | 0.428 µM |
| NC[C@H](Cc1cccnc1)NC(=O)c1cc2c(s1)CCCn1ncc(Cl)c1-2 [Embodiment 2] | 0.294 µM | 0.00664 µM | 0.666 µM | 0.266 µM |
| NC[C@H](Cc1ccc(Cl)cc1)NC(=O)c1cc2c(s1)CCCn1ncc(Cl)c1-2 [Embodiment 8] | 0.069 µM | 0.00362 µM | 0.534 µM | 0.107 µM |
| NC[C@H](Cc1ccc(F)c(F)c1F)NC(=O)c1cc2c(s1)CCCn1ncc(Br)c1-2 [Embodiment 15] | 0.016 µM | 0.00067 µM | 0.085 µM | 0.02 µM |
| NC[C@H](Cc1cc(F)ccc1F)NC(=O)c1cc2c(s1)CCCn1ncc(Br)c1-2 [Embodiment 17] | 0.041 µM | 0.00068 µM | 0.23 µM | 0.038 µM |
| NC[C@H](Cc1ccccc1C(F)(F)F)NC(=O)c1cc2c(s1)CCCn1ncc(Cl)c1-2 [Embodiment 10] | 0.029 µM | 0.00063 µM | 0.159 µM | 0.017 µM |
| CN(C)C[C@H](Cc1cccc(F)c1)NC(=O)c1cc2c(s1)CCCn1ncc(Cl)c1-2 [Embodiment 12] | 0.867 µM | 0.116 µM | 4.89 µM | 4.83 µM |
| NC[C@@H](NC(=O)c1cc2c(s1)CCCn1ncc(Cl)c1-2)c1ccccc1 [Embodiment 13] | 0.189 µM | 0.011 µM | 0.514 µM | 0.188 µM |
| NC[C@H](Cc1ccc(Cl)c(Cl)c1)NC(=O)c1cc2c(s1)CCCn1ncc(Cl)c1-2 [Embodiment 9] | 0.044 µM | 0.00139 µM | 0.236 µM | 0.025 µM |
| NC[C@H](Cc1ccc(F)c(F)c1)NC(=O)c1cc2c(s1)CCCn1ncc(Cl)c1-2 [Embodiment 7] | 0.024 µM | 0.00071 µM | 0.059 µM | 0.019 µM |
